According to US20230202975A1 (Recordati Industria Chimica e Farmaceutica S.p.A., priority 2021, published 2023):

What was measured:
Type in all cases: physicochemical
[1] = Bulk density and tapped density (Ph. Eur. 2.9.34), Hausner ratio; settings: average of three samples, after drying under vacuum
Experimental: Bulk density and Tapped density: were measured according to the method of pharmacopoeia (Ph. Eur. 2.9.34). 100 g of sample was weighed and then placed in the test tube, noting the apparent volume without any type of treatment to the sample. Afterwards, 10, 500 and 1250 taps are made using the automatic volumeter (Model: Schleuniger JV2000, Equipment code: CE9), noting the apparent volumes obtained in these three tests. In the event that the difference between the volume obtained for the 500 and 1250 taps was greater than 2 ml, the operation was repeated in increments of 1250 taps until the difference within measurements is less than or equal to 2 ml. For each batch the test was carried out in duplicate.
The bulk density and tapped density were calculated according to the following equations: […]
where m is the amount of sample weighed expressed in grams and V0 is the apparent uncompacted volume expressed in milliliters. Tapped density:
Another parameter relevant for evaluating powder flowability is the Hausner ratio namely the ratio between tapped and bulk densities. Generally, a Hausner ratio of higher than 1.50 indicates a very poor flowability (Powder properties in food production systems, Handbook of Food Powders, Ed.: Bhesh Bhandari, Nidhi Bansal, Min Zhang, Pierre Schuck, Woodhead Publishing, 2013, chapter 12, page 298).

[2] = Particle size distribution (laser particle size analyser, Ph. Eur. 2.9.31)
Experimental: Particle size distribution was evaluated in line with European Pharmacopeia 2.9.31 with the instrument and according to sample preparation and test conditions reported in the following Table 3: […]

[3] = pH of aqueous solution (potentiometric); settings: 100 mg of sample dissolved in 10 ml of water
Experimental: Keys: ^1 pH was determined potentiometncally on a solution of 100 mg of sample dissolved in 10 ml of water; HPLC purity is expressed as area percentage (area of the peak/total area×100); DMT: 2,2-dimethylthiazolidine.

Compound	Particle Size, compliance with specification D50 <150 mic [2]	Particle Size, compliance with specification D90 <450 mic [2]	other results
NCCS.O=C(O)C(O)C(O)C(=O)O (stereo not shown) [Example 10A, Cysteamine Bitartrate]			Bulk density ([1]; listed as Cysteamine Bitartrate crystallized according to the process of the present inven): 0.301 g/mL; Bulk density ([1]; listed as Ex. 10A): 0.301 g/mL; Tapped density ([1]; listed as Ex. 10A): 0.423 g/mL
NCCS.O=C(O)C(O)C(O)C(=O)O (stereo not shown) [Example 10B, Cysteamine Bitartrate, reference compound]			Bulk density ([1]; listed as Cysteamine Bitartrate crystallized according to the prior art process (direct ad)): 0.279 g/mL; Bulk density ([1]; listed as Ex. 10B): 0.279 g/mL; Tapped density ([1]; listed as Ex. 10B): 0.442 g/mL
NCCS.O=C(O)C(O)C(O)C(=O)O (stereo not shown) [Example C1, Cysteamine Bitartrate]	~65%	(100%)	
NCCS.O=C(O)C(O)C(O)C(=O)O (stereo not shown) [Example C2, Cysteamine Bitartrate]	~55%	(100%)	
NCCS.O=C(O)C(O)C(O)C(=O)O (stereo not shown) [Example C3, Cysteamine Bitartrate]	~53%	(100%)	
NCCS.O=C(O)C(O)C(O)C(=O)O (stereo not shown) [Example R1, Cysteamine Bitartrate]	(100%)	(100%)	
NCCS.O=C(O)C(O)C(O)C(=O)O (stereo not shown) [Example R2, Cysteamine Bitartrate]	(100%)	(100%)	
NCCS.O=C(O)C(O)C(O)C(=O)O (stereo not shown) [Example R3, Cysteamine Bitartrate]	(100%)	(100%)	
Cysteamine Bitartrate [Example 2]			pH [3]: 3.53
